The source of these data is ChEMBL document CHEMBL4420066, “Aryl amine substituted quinoxaline used as anticancer drugs” (2017).

Activity calls are given as the source filed them. The rule behind the calls is not given here.

For assay [1], the system named is Hep 3B2. The assay is described as follows: Inhibition of PP2A-B5 protein expression in human Hep3B cells at 1 uM incubated for 24 hrs by Western blotting analysis. Type of assay: functional, cell-based. (In western blotting, separated proteins are transferred to a membrane and probed.)
Assay [2] deals with Hep 3B2. The assay is described as follows: Induction of apoptosis in human Hep3B cells assessed as caspase-3 activation at 0.5 to 4 uM incubated for 48 hrs by Western blotting analysis. In kind it is functional, cell-based.
For assay [3], the species on record is Homo sapiens. The assay is described as follows: Inhibition of CIP2A protein expression in human PLC5 cells by Western blotting analysis. Type of assay: functional, cell-based.
For assay [4], the species on record is Homo sapiens. The assay is described as follows: Induction of apoptosis in human PLC5 cells at 2 uM incubated for 24 hrs in presence of PP2A-C siRNA by annexin-V-FITC staining based by flow cytometry. Type of assay: functional, cell-based.
For assay [5], the species on record is Homo sapiens. The assay is described as follows: Induction of apoptosis in human PLC5 cells with ectopic overexpression of GFP-tagged Elk-1 at 2 uM incubated for 24 hrs by annexin-V-FITC staining based by flow cytometry. Type of assay: functional, cell-based. On the technique in general: In flow cytometry, cells or beads pass a laser one at a time.
The species entered for assay [6] is Homo sapiens. The assay is described as follows: Inhibition of PP2A-A protein expression in human PLC5 cells at 1 uM incubated for 24 hrs by Western blotting analysis. Type of assay: functional, cell-based.
Assay [7] concerns Hep 3B2. The assay is described as follows: Induction of apoptosis in human Hep3B cells assessed as caspase-9 activation at 0.5 to 4 uM incubated for 48 hrs by Western blotting analysis. In kind it is functional, cell-based.
In assay [8] the test system is HA22T cell line. Put plainly: Induction of necrosis in human HA22T cells >= 2 uM incubated for 48 hrs by annexin-V-FITC staining based by flow cytometry relative to control. Type of assay: functional.
Assay [9] deals with HA22T cell line. Put plainly: Inhibition of CIP2A protein expression in human HA22T cells assessed as CIP2A protein expression ratio level at 1 uM by Western blotting analysis (Rvb =1). In kind it is functional.
Assay [10] has as its system HA22T cell line. Put plainly: Inhibition of CIP2A protein expression in human HA22T cells at 1 uM by Western blotting analysis. Type of assay: functional, cell-based. The note with it: TDE = time-dependent effect.
For assay [11], the species on record is Homo sapiens. Put plainly: Induction of apoptosis in human PLC5 cells assessed as caspase-3 activation at 0.5 to 4 uM incubated for 48 hrs by Western blotting analysis. Type of assay: functional, cell-based.
The subject of assay [12] is HA22T cell line. The assay is described as follows: Inhibition of CIP2A protein expression in human HA22T cells by Western blotting analysis. In kind it is functional, cell-based.
Assay [13] is filed under the species Homo sapiens. The assay is described as follows: Inhibition of CIP2A protein expression in human PLC5 cells at 2 uM by Western blotting analysis. In kind it is functional, cell-based.
Assay [14] has as its system Hep 3B2. The assay is described as follows: Inhibition of PP2A-A protein expression in human Hep3B cells at 1 uM incubated for 24 hrs by Western blotting analysis. In kind it is functional, cell-based.
The test system of assay [15] is SK-HEP1. The assay is described as follows: Induction of apoptosis in human SKHEP1 cells assessed as accumulation at subG1 phase at 0.5 to 4 uM by flow cytometry. Type of assay: functional, cell-based.
The species entered for assay [16] is Homo sapiens. Put plainly: Activation of PP2A in human PLC5 cells assessed as increase in protein phosphatase activity at 1 uM incubated for 24 hrs using phosphopeptide substrate incubated for 10 mins by malachite green-phosphate complex assay. In kind it is cell-based.
For assay [17], the species on record is Homo sapiens. Put plainly: Activation of PP2A in human Hep3B cells assessed as increase in protein phosphatase activity at 1 uM incubated for 24 hrs using phosphopeptide substrate incubated for 10 mins by malachite green-phosphate complex assay. In kind it is cell-based.
Assay [18] is filed under the species Homo sapiens. The assay is described as follows: Inhibition of human CIP2A gene promoter in human PLC5 cells assessed as inhibition of ELK1 protein expression by Western blotting analysis. Type of assay: cell-based.
For assay [19], the species on record is Homo sapiens. The assay is described as follows: Inhibition of ELK1 protein expression in human PLC5 cells at 2 uM by Western blotting analysis. Type of assay: functional, cell-based.
Assay [20] concerns SK-HEP1. The assay is described as follows: Inhibition of CIP2A protein expression in human SKHEP1 cells by Western blotting analysis. In kind it is functional, cell-based.
Assay [21] is filed under the species Homo sapiens. The assay is described as follows: Induction of apoptosis in human PLC5 cells assessed as accumulation at subG1 phase at 0.5 to 4 uM by flow cytometry. Type of assay: functional, cell-based.
For assay [22], the system named is SK-HEP1. The assay is described as follows: Induction of apoptosis in human SKHEP1 cells assessed as caspase-3 activation at 0.5 to 4 uM incubated for 48 hrs by Western blotting analysis. In kind it is functional, cell-based.

As for `C#Cc1cccc(Nc2nc3ccccc3nc2Nc2cccc(C#C)c2)c1`, the inhibition result in the assay on Hep 3B2 [1], in the assay listed under Homo sapiens [6], in the assay listed under Homo sapiens [13], with Hep 3B2 [14] and in the assay filed under Homo sapiens [19] was “inactive” in each case. In addition, the Activity result in the assay with Hep 3B2 [2] is “Dose-dependent effect”; with Hep 3B2 [7], “Dose-dependent effect”; in the assay with HA22T cell line [8], 50%; in the assay listed under Homo sapiens [11], “Dose-dependent effect”; with SK-HEP1 [22], “Dose-dependent effect”. For the same molecule, the inhibition entry in the assay filed under Homo sapiens [3] is “Dose-dependent effect”; in the assay with HA22T cell line [10], “Tde”; with HA22T cell line [12], “Dose-dependent effect”; in the assay filed under Homo sapiens [18], “Dose-dependent effect”; in the assay with SK-HEP1 [20], “Dose-dependent effect”. In addition, the outcome in the assay listed under Homo sapiens [4] and in the assay listed under Homo sapiens [5] was inactive. Also, in the assay with HA22T cell line [9], the Ratio was found to be 0.84. Moreover, the result in the assay with SK-HEP1 [15], in the assay filed under Homo sapiens [16], in the assay filed under Homo sapiens [17] and in the assay filed under Homo sapiens [21] was Active.
